From EP4534542A1, “THIOSUGAR BASED ISOTHIOCYANATES AND USES THEREOF” (Universidad de Sevilla, priority 2023, dated 2025)
Like-named read-outs stand apart in the source and are kept apart here.

Assays:
[1] = test system: HaCaT cells; assay: Cell viability assay (resazurin), cytotoxicity in non-malignant cells; format: cell-based, human; conditions: Homo sapiens, HaCaT, read-out: IC50 HaCaT (Non-malignant keratinocyte)
Description: (§1) Cells were grown in Dulbecco's Modified Eagle's Medium (DMEM) supplemented with 100 U/mL penicillin, 100 µg/mL streptomycin and 10% fetal bovine serum. HL60 cell line (acute myeloid leukaemia, AML) was obtained from ATCC. It was cultured in IMDM medium supplemented with 100 U/mL penicillin, 100 µg/mL streptomycin and 10% fetal bovine serum. U937 (AML) and Jurkat cells (ALL) were obtained from DMSZ, Braunschweig, Germany, and ATCC, respectively. They were cultivated in RPMI medium, supplemented with 100 U/mL penicillin, 100 µg/mL streptomycin and 10% fetal bovine serum. […] All cell lines were cultured at 37 ° C with 5% CO2 in a humidified incubator. Cell culture reagents were purchased from Biowest. Exponentially growing cells (3000-6000 cells per well) were seeded in 96-well plates. After 24 hours, cells were treated with the drugs for 72 hours. The cell viability was then estimated with the resazurin assay, a colorimetric technique based on the capability of viable cells to reduce the blue reagent resazurin to the pink-soluble product resorufin. The amount of resorufin produced is proportional to the number of viable cells. Briefly, cells were washed once with phosphate buffered saline (PBS) and 150 µL resazurin (20 µg/mL in medium) was added to each well. The plates were incubated for 3 hours at 37 °C, 5% CO2, and finally optical densities were measured at 540 and 620 nm with a multiwell plate spectrophotometer reader (Multiskan EX Labsystems). Cell viability was calculated as a percentage compared to non-treated cells. The results were expressed as the means ± standard error of the mean (SEM). All data are from at least three independent experiments.

[2] = test system: A549 (human lung adenocarcinoma cells); assay: Cell viability assay (resazurin), cytotoxic activity against solid tumours; format: cell-based; conditions: for IC50: Homo sapiens, read-out: IC50 A549 (Lung adenocarcino ma); for S.I. A549 (Selectivity Index): IC50 HaCaT divided by IC50 A549, mean of independent experiments
Description: as §1, with “The plates were incubated for 3 hours at 37 °C, 5% CO2, and finally optical densities were measured at 540 and 620 nm with a multiwell plate spectrophotometer reader (Multiskan EX Labsystems).” left out, “experiments. The selectivity index (S.I.) values were calculated over each cancer cell line as the mean of the IC50 value in the non-malignant cell line (HaCaT) by the IC50 in the respective cancer cell line obtained in each independent experiment.” for “experiments.”

[3] = test system: T24 (human bladder cancer cells); assay: as above; format: cell-based; conditions: for IC50: Homo sapiens, read-out: IC50 T24 (Bladder cancer); for S.I. T24 (Selectivity Index): IC50 HaCaT divided by IC50 T24, mean of independent experiments
Description: as §1, with “The plates were incubated for 3 hours at 37 °C, 5% CO2, and finally optical densities were measured at 540 and 620 nm with a multiwell plate spectrophotometer reader (Multiskan EX Labsystems).” left out, “experiments. The selectivity index (S.I.) values were calculated over each cancer cell line as the mean of the IC50 value in the non-malignant cell line (HaCaT) by the IC50 in the respective cancer cell line obtained in each independent experiment.” for “experiments.”

[4] = test system: MeWo (human melanoma cells); assay: as above; format: cell-based; conditions: for IC50: Homo sapiens, MeWo, read-out: IC50 MeWo (Melanoma; BRAF WT); for S.I. MeWo (Selectivity Index): IC50 HaCaT divided by IC50 MeWo, mean of independent experiments
Description: as §1, with “The plates were incubated for 3 hours at 37 °C, 5% CO2, and finally optical densities were measured at 540 and 620 nm with a multiwell plate spectrophotometer reader (Multiskan EX Labsystems).” left out, “experiments. The selectivity index (S.I.) values were calculated over each cancer cell line as the mean of the IC50 value in the non-malignant cell line (HaCaT) by the IC50 in the respective cancer cell line obtained in each independent experiment.” for “experiments.”

[5] = test system: Jurkat (Acute lymphoblastic leukaemia); assay: Antileukemic activity, cell viability (CCK-8 Cell Counting Kit); format: cell-based; conditions: Homo sapiens, 18 h incubation, compounds 0 - 100 µM, read-out: IC50 Cancer cells Jurkat (Acute lymphoblastic leukaemia)
Description: (§2) HaCaT cells (human keratinocytes, reference control), A549 (human lung adenocarcinoma cells), MeWo (human melanoma cells) and T24 (human bladder cancer cells) were purchased from Cell Lines Service (CLS). Cells were grown in Dulbecco's Modified Eagle's Medium (DMEM) supplemented with 100 U/mL penicillin, 100 µg/mL streptomycin and 10% fetal bovine serum. HL60 cell line (acute myeloid leukaemia, AML) was obtained from ATCC. It was cultured in IMDM medium supplemented with 100 U/mL penicillin, 100 µg/mL streptomycin and 10% fetal bovine serum. U937 (AML) and Jurkat cells (ALL) were obtained from DMSZ, Braunschweig, Germany, and ATCC, respectively. They were cultivated in RPMI medium, supplemented with 100 U/mL penicillin, 100 µg/mL streptomycin and 10% fetal bovine serum. OPM-2 cell line (MM), was obtained from DMSZ, Braunschweig, Germany and cultured in RPMI medium supplemented with 100 U/mL penicillin, 100 µg/mL streptomycin, 10% fetal bovine serum and 1X GlutaMAXTM. All cell lines were cultured at 37 ° C with 5% CO2 in a humidified incubator. Cell culture reagents were purchased from Biowest.
(§3) For the leukemic cell lines, the CCK-8 Cell Counting Kit (Dojindo Molecular Technologies) was used according to manufacturers instructions. Briefly, 50.000 cells were seeded in each well of a 96 well plate, and they were treated with increased amounts (0 - 100 µM) of each of the compounds, and incubated for 18 h at 37 °C, 5% CO2. After this period, 7 µl of the CCK-8 reagent were added to each well, and cells were further incubated for 2 h at 37 °C, 5% CO2. OD at 450 nm was obtained using a MultiskanTM GO microplate reader (Thermo Fisher Scientific, Waltham, MA, EE.UU). Cell viability in each condition was normalized to the measurement obtained in the non treated samples (100%), and were represented as average ± standard error of the mean (SEM).

[6] = test system: U937 (Acute myeloid leukaemia); assay: as above; format: cell-based; conditions: Homo sapiens, U-937; 18 h incubation, compounds 0 - 100 µM; read-out: IC50 Cancer cells U937 (Acute myeloid leukaemia)
Description: as §2, §3

[7] = test system: OPM-2 (Multiple myeloma); assay: as above; format: cell-based; conditions: Homo sapiens, 18 h incubation, compounds 0 - 100 µM, read-out: IC50 Cancer cells OPM-2 (Multiple myeloma)
Description: as §2, §3

[8] = test system: HL60 (Acute myeloid leukaemia); assay: as above; format: cell-based; conditions: Homo sapiens, HL-60; 18 h incubation, compounds 0 - 100 µM; read-out: IC50 Cancer cells HL60 (Acute myeloid leukaemia)
Description: as §2, §3

[9] = 72 h treatment, resazurin assay, mean ± SEM
[10] = A549, 72 h treatment, resazurin assay, mean ± SEM

Row | SMILES | IC50 [5] [µM] | IC50 [6] [µM] | IC50 [7] [µM] | IC50 [8] [µM] | IC50 ([1]; 72 h) [µM] | IC50 ([2]; A549, 72 h) [µM] | S.I. A549 (Selectivity Index) [2] | IC50 ([3]; 72 h) [µM] | S.I. T24 (Selectivity Index) [3] | IC50 ([4]; 72 h) [µM] | S.I. MeWo (Selectivity Index) [4] | IC50 [1, 9] [µM] | IC50 [2, 10] [µM] | IC50 [3, 9] [µM] | IC50 [4, 9] [µM]
1 | CCS(=O)(=O)[C@@H]1O[C@H](COC(C)=O)[C@@H](OC(C)=O)[C@H](N=C=S)[C@H]1OC(C)=O [Compound 20β, Ethyl 2,4,6-tri-O-acetyl-3-isothiocyanato-1,3-dideoxy-1-sulfonyl-β-D-glucopyranose] | 45.1 | 34.7 | 37.2 | 19.8 | 84.9 ± 15.2 | 47.9 ± 10 | 1.9±0.3 | 39.3 ± 3.7 | 2.1±0.2 | 53.6 ± 7.4 | 1.6±0.3 |  |  |  | 
2 | CS(=O)(=O)CCCN=C=S [Compound 6, 1-isothiocyanato-3-(methylsulfonyl)propane, reference compound] | 10.3 | 8.4 | 13 | 7 | 35.9 ± 7.8 | 25.2 ± 9.3 | 1.9±0.4 | 10.7 ± 2.2 | 3.3±0.1 | 29.5 ± 8.7 | 1.3±0.2 |  |  |  | 
3 | CC(=O)OC[C@H]1O[C@@H](S(=O)(=O)c2ccccc2)[C@H](OC(C)=O)[C@@H](N=C=S)[C@@H]1OC(C)=O [Compound 21β, Phenyl 2,4,6-tri-O-acetyl-3-isothiocyanato-1,3-dideoxy-1-sulfonyl-β-D-glucopyranose] | 24.9 | ~48.3 | 19.7 | 13.1 | 55.7 ± 2.4 | 37.5 ± 8.6 | 1.7±0.4 | 36.4 ± 9.3 | 1.9±0.4 | 43.5 ± 9.4 | 1.5±0.3 |  |  |  | 
4 | C[S+]([O-])CCCN=C=S (racemic) [rac-5, 1-isothiocyanato-3-(methylsulfinyl)propane, reference compound] | 13.7 | 8.5 | 19.4 | 11 | 33 ± 5.8 | 20.7 ± 5.7 | 1.8±0.3 | 12.2 ± 2.9 | 2.9±0.3 | 32.8 ± 5.8 | 1.0±0.1 |  |  |  | 

Further lines, with some results ahead:

Row | IC50 [5] [µM] | IC50 [6] [µM] | IC50 [7] [µM] | IC50 [8] [µM] | SMILES | IC50 ([1]; 72 h) [µM] | IC50 ([2]; A549, 72 h) [µM] | S.I. A549 (Selectivity Index) [2] | IC50 ([3]; 72 h) [µM] | S.I. T24 (Selectivity Index) [3] | IC50 ([4]; 72 h) [µM] | S.I. MeWo (Selectivity Index) [4] | IC50 [1, 9] [µM] | IC50 [2, 10] [µM] | IC50 [3, 9] [µM] | IC50 [4, 9] [µM]
5 | 128 | ~51.2 | 64.9 | 36.9 | CC(=O)OCC1OC([S+](C)[O-])C(OC(C)=O)C(N=C=S)C1OC(C)=O [(SS)-16β, Methyl 2,4,6-tri-O-acetyl-3-isothiocyanato-1,3-dideoxy-1-(S)-sulfinyl-β-D-glucopyranoside] |  |  |  |  |  |  |  | > 100 | 109 ± 23.7 | 94.2 ± 13.2 | 122 ± 20.7
6 | 18.7 | ~24.2 | 24.9 | ~13 | CS[C@@H]1O[C@H](COC(C)=O)[C@@H](OC(C)=O)[C@H](N=C=S)[C@H]1OC(C)=O [Compound 13β, Methyl 2,4,6-tri-O-acetyl-3-isothiocyanato-1,3-dideoxy-1-thio-β-D-glucopyranoside] |  |  | 1.5±0.2 |  | 1.8±0.2 |  | 1.3±0.0 | 70 ± 4.6 | 51.4 ± 9.2 | 42 ± 7.5 | 55.9 ± 4.8
7 | 46.3 | ~47.3 | 19.6 | 7.4 | CC(=O)OC[C@H]1O[C@H]([S@+]([O-])c2ccccc2)[C@H](OC(C)=O)[C@@H](N=C=S)[C@@H]1OC(C)=O [(RS)-18α, Phenyl 2,4,6-tri-O-acetyl-3-isothiocyanato-1,3-dideoxy-1[(R)-sulfinyl]-α-D-glucopyranose] |  |  | 1.1±0.4 |  | 1.3±0.5 |  | 1.0±0.4 | 51 ± 17.6 | 55.7 ± 8.4 | 48.6 ± 8.6 | 55.3 ± 7.6
8 | 20 | ~43.3 | 16.6 | ~6.6 | CC(=O)OC[C@H]1O[C@@H]([S@@+]([O-])c2ccccc2)[C@H](OC(C)=O)[C@@H](N=C=S)[C@@H]1OC(C)=O [(SS)-18β, Phenyl 2,4,6-tri-O-acetyl-3-isotiocianato-1,3-dideoxy-1[(S)-sulfinyl]-β-D-glucopyranose] |  |  | 1.5±0.1 |  | 2.0±0.3 |  | 1.5±0.1 | 24.2 ± 3.9 | 16.8 ± 2.9 | 12.9 ± 3 | 16 ± 2.6
9 | 12.5 | 25.1 | 17 | 9.7 | CCS[C@H]1O[C@H](COC(C)=O)[C@@H](OC(C)=O)[C@H](N=C=S)[C@H]1OC(C)=O [Compound 14α, Ethyl 2,4,6-tri-O-acetyl-3-isothiocyanato-1,3-dideoxy-1-thio-α-D-glucopyranoside] |  |  | 1.5±0.3 |  | 1.4±0.2 |  | 1.2±0.2 | 51.3 ± 1.8 | 40.6 ± 9 | 40.7 ± 6.9 | 46.4 ± 7.6
